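Protocol summary: plate cells (96-well), add compound at 5 concentrations, incubate 48 h, interpolate endpoints linearly. GI50 is the concentration that inhibits growth by half. Definition used: TGI = concentration required for complete inhibition of growth.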
Legend:
Experiment in all cases: growth of human tumour cells (NCI), 48 h
A498 renal = tested on: A498 renal
CCRF-CEM leukemia = tested on: CCRF-CEM leukemia
COLO 205 colon = tested on: COLO 205 colon
M14 melanoma = tested on: M14 melanoma
NCI-H460 lung = tested on: NCI-H460 lung
SK-OV-3 ovarian = tested on: SK-OV-3 ovarian
SN12C renal = tested on: SN12C renal
SW-620 colon = tested on: SW-620 colon
TK-10 renal = tested on: TK-10 renal
PC-3 prostate = tested on: PC-3 prostate

SMILES	TGI (A498 renal) [µM]	TGI (CCRF-CEM leukemia) [µM]	TGI (COLO 205 colon) [µM]	TGI (M14 melanoma) [µM]	TGI (NCI-H460 lung) [µM]	TGI (SK-OV-3 ovarian) [µM]	TGI (SN12C renal) [µM]	TGI (SW-620 colon) [µM]	TGI (TK-10 renal) [µM]	GI50 (A498 renal) [µM]	GI50 (CCRF-CEM leukemia) [µM]	GI50 (M14 melanoma) [µM]	GI50 (SN12C renal) [µM]	GI50 (SW-620 colon) [µM]	GI50 (NCI-H460 lung) [µM]	GI50 (SK-OV-3 ovarian) [µM]	GI50 (TK-10 renal) [µM]	TGI (PC-3 prostate) [µM]	GI50 (COLO 205 colon) [µM]
CCCCCCCC[N+](C)(C)Cc1ccc(C[N+](C)(C)CCCCCCCC)cc1	> 100	> 100	3.48	> 100	> 100	> 100	> 100	> 100	> 100										
C=C(C)C1CC=C(C(=O)O)CC1 (centres undefined)	4420	2770	1620	> 5000	3950	> 5000	> 5000	> 5000	> 5000										
Cc1nc(NC(=S)NC(=O)c2ccc(Cl)c(Cl)c2)sc1C(=O)/C=C/c1ccccc1[N+](=O)[O-]		73.9	34.9	51.5	> 100	49.7	61.7	41.2	71.3										
O=C1c2ccccc2C(=O)N1/N=C\c1ccc(Br)cc1	> 100	> 100	> 100	> 100	> 10	> 100	> 100	> 100	> 10	> 100	> 100	> 100	> 100	> 100					
CC(=O)[CH-]C(=O)c1ccccc1.CC(=O)[CH-]C(=O)c1ccccc1.O=C([O-])C[O-].O=C([O-])C[O-].[Ti+4]	> 100			> 100	> 100	> 100	> 100	> 100		> 100		34.7	60.5	53.8	28.4	35.8			
O=C(O)/C(Cl)=C(\Cl)Nc1cccc(C(F)(F)F)c1		> 100	> 100	33.4	> 100	> 100	> 100	> 100	> 100										
CC1(C)CCC(=O)c2c(O)ccc(O)c21			> 100			> 100	> 100	> 100	> 100										
COc1ccc2cc(C(=O)c3ccccc3C(=O)O)ccc2c1	> 100	> 100	> 100	> 100	> 100	> 100	> 100	> 100	> 100										
c1cncc(C2c3[nH]c4ccccc4c3CCN2CCCN2CCCCC2)c1 (centres undefined)	> 100		> 100	41.1	> 100	> 100	> 100	> 100	> 100										
CCOC(=O)C12CCCC1(O)N(NC(=O)c1cccc(Cl)c1)C(C)=C2C(=O)OC (centres undefined)	> 100			> 100	> 100	> 100	> 100	> 100											
OCCN1CCN(CCO)Cc2ccccc2OCCOc2ccccc2C1	> 100	> 100	> 100	> 100	> 100	> 100	> 100	> 100	> 100										
CCCC(OCC)(OCC)OCC	> 100	> 100	> 100	> 100	> 100	> 100	> 100		> 100										
CCOC(=O)/C(=C/c1ccc(OC)c(OC)c1)C(=O)c1ccccc1	46.5	55.1	31.1	28.9	> 100	73.1		48.5	65.4										
COC(=O)C1=CC(O)CCC1c1ccc(OC)cc1 (centres undefined)	> 100	> 100	> 100	> 100	> 100	> 100	> 100	> 100	> 100										
Cc1ccc(-c2csc(N(C(=O)N3CCN(c4cc5c(cc4F)c(=O)c(C(=O)O)cn5C4CC4)CC3)c3ccccc3)n2)cc1	0.443			> 100	> 100	0.787			11.5	0.0363		0.394			0.331	0.252	0.541		
Cc1cc(C)c(C(=O)O)c(N)c1O	> 100	> 100	> 100	> 100		> 100	> 100	> 100	> 100										
CSc1nc(NC2OCC(OC(C)=O)C(OC(C)=O)C2OC(C)=O)c(N=CC=Nc2c(NC3OCC(OC(C)=O)C(OC(C)=O)C3OC(C)=O)nc(SC)n(C)c2=O)c(=O)n1C (centres undefined)	> 100		> 100	> 100	> 100	> 100	> 100	> 100	> 100										

SMILES	TGI (A498 renal) [µM]	TGI (CCRF-CEM leukemia) [µM]	TGI (COLO 205 colon) [µM]	TGI (M14 melanoma) [µM]	TGI (NCI-H460 lung) [µM]	TGI (SK-OV-3 ovarian) [µM]	TGI (SN12C renal) [µM]	TGI (SW-620 colon) [µM]	TGI (TK-10 renal) [µM]	GI50 (A498 renal) [µM]	GI50 (CCRF-CEM leukemia) [µM]	GI50 (M14 melanoma) [µM]	GI50 (SN12C renal) [µM]	GI50 (SW-620 colon) [µM]	GI50 (NCI-H460 lung) [µM]	GI50 (SK-OV-3 ovarian) [µM]	GI50 (TK-10 renal) [µM]	TGI (PC-3 prostate) [µM]	GI50 (COLO 205 colon) [µM]
COc1ccc2[nH]c3c4c(c5cc(C(C)(C)C)ccc5c3c2c1)C(=O)N(c1ccccc1)C4=O	61.6		> 100	> 100	> 100	> 100		> 100	> 100										
COc1cc(C(=O)C/C(CCC(=O)Nc2ccccc2[N+](=O)[O-])=N\NC(=O)C(N)=O)ccc1O		> 100	> 100	> 100	> 100	> 100		> 100	> 100										
C[C@H](c1ccc(Cl)cc1N)N1C(=O)c2cc(I)ccc2N(CCCN2CCN(C)CC2)C(=O)[C@@H]1c1ccc(Cl)cc1	2.7	3.47		3.65	2.71	3.2	3.03	3.14	3.07	1.3	1.63	1.96	1.59	1.72	1.32	1.81	1.61		
CC(=O)CC(=O)N(CCN(C(=O)CC(C)=O)c1ccccc1)c1ccccc1	> 100	> 100	> 100	> 100	> 100	> 100	> 100	> 100	> 100										
CSc1ccc(-c2cn3ccsc3n2)c(O)c1	> 100	> 60.9	> 62.7	> 100	> 87.4	> 100	> 100	> 55.1	> 100										
CC(C)C1C(=O)N2CCCC2C2(O)OC(NC(=O)C3C=C4c5cccc6[nH]cc(c56)CC4N(C)C3)(C(C)C)C(=O)N12 (centres undefined)		91.3	51.5	75.5	39.2		> 100	> 100	68.6									87.3	
CCCCCCCCCOC(=S)NC	48.8	47.7	49.2	45.8	36.3	45.7	36.9	40.9	54.6										
CN1CCC23c4c5ccc(O)c4OC2C(=NN=C2CCC4(O)C6Cc7ccc(O)c8c7C4(CCN6C)C2O8)CCC3(O)C1C5 (centres undefined)	> 100	> 100	> 100	> 100	> 100	> 100	> 100	> 100	> 100										
COc1cccc(/C=C(/C(=O)O)c2cc(OC)c(OC)c(OC)c2)c1	> 100	> 100	> 100	> 100	> 100		> 100	> 100	> 100										
CC1(C)CC23C(=O)N(c4ccccc4)C(=Nc4ccccc4)NC2=CC(C#N)=C(C#N)C3O1 (centres undefined)	> 100	> 100	> 100	> 100	> 100		> 100	> 100	> 100										
C/C(=N\O)c1sc(-n2nc(-c3ccccc3)cc2-c2ccccc2)nc1C	> 31.6	25.6		18.3	21.6		15.4	19.6											
CCc1ccccc1NC(=O)/C(CC(=O)c1c(C)n([O-])c2ccccc2[n+]1=O)=N\NS(=O)(=O)c1ccc(C)cc1	> 100	52.6	> 100	> 100	> 100	> 100	> 100	> 100	> 100										
COC1=CC(=O)c2ccc(C(C)C)cc2C1(C)C1=NC(C)(C)CO1 (centres undefined)		> 100	> 100	> 100	> 100	> 100	> 100	> 100	> 100										
CCOC(=O)C1Cc2c(ccc(OC)c2OC)C(=O)C1N (centres undefined)		> 100	> 100	> 100	> 100	> 100	> 100	> 100	> 100										
C[C@]12CCC[C@H](OC=O)C1(O)C[C@H](C(=O)O)CC2 (some centres undefined)	> 100	> 100	> 100	> 100	> 100	> 100	> 100	> 100	> 100										
CC[O-].CC[O-].[O-]c1ccccc1C=Nc1ccccc1.[O-]c1ccccc1C=Nc1ccccc1.[Ti+4]		> 100	> 100	> 100	> 100	> 100	> 100	> 100	> 100		10.9	> 100	> 100	9.24	> 100	> 100	> 100		96.8

From PubChem BioAssay (NCI)
